Reference: article PMC4239610, “A Peptide Derived from G0/G1 Switch Gene 2 Acts as Noncompetitive Inhibitor of Adipose Triglyceride Lipase” (The Journal of Biological Chemistry, 2014)

What was measured:
[1] = system: WAT TG hydrolase activity derived from Atgl-KO mice; experiment: TG hydrolase activity of WAT lysates of Atgl-KO mice; type: biochemical, mouse; conditions: overnight fasted, 1.4 μM hGW2052, 40 μM Atglistatin, Fig. 4A
Experimental: (§1) Adipose tissue samples from overnight fasted wild-type and Atgl-KO mice were washed in PBS (137 mM NaCl, 2.7 mM KCl, 10 mM Na2HPO4, 2 mM KH2PO4) containing 1 mM EDTA and homogenized on ice in sucrose solution (see above) using an Ultra Turrax (IKA, Staufen, Germany).
FIGURE 4.

[2] = cited from earlier work
Description: Adipose triglyceride lipase (ATGL) hydrolyzes TGs into diacylglycerols and FAs and is required for efficient intracellular lipolysis ([7]). Global inactivation of ATGL activity leads to massive TG accumulation in all tissues, including the heart of Atgl knock-out mice ([8]). Accordingly, patients with ATGL deficiency suffer from cardiac and skeletal muscle myopathy and require heart transplants at a relatively young age ([9]). However, genetic and small molecule-mediated inactivation of ATGL is also associated with beneficial effects on plasma lipid parameters and insulin sensitivity; Atgl-KO ... || Genetic disruption of Atgl results in severe heart defects due to massive TG accumulation in cardiac muscle ([8], [55]). Thus, the application of a synthetic, competitive ATGL inhibitor, such as Atglistatin, as a therapeutic tool appears limited. […] Th ...

[3] = system: TG hydrolase activity of WAT lysates from WT animals; experiment: TG hydrolase activity of WAT lysates of overnight fasted WT mice; type: biochemical, mouse
Experimental: as §1
FIGURE 4.

ATGL = conditions: cited from earlier work
Description: Extensive research on the physiological role of ATGL has identified complex regulatory mechanisms for its activity on the transcriptional and post-translational level ([12], [13]). Direct protein-protein interaction of ATGL with the protein comparative gene identification 58 (CGI-58) increases ATGL activity up to 20-fold ([14]). Inhibition of ATGL due to direct interaction with the small, 103-amino acid protein G0/G1 switch gene 2 (G0S2) was discovered in 2010 and confirmed using human and murine proteins ([15][–][21]). The highest G0S2 expression is found in adipose tissues, but it is also pr ... || Activation of ATGL by CGI-58 is considered as fasting response upon β-adrenergic stimulation and phosphorylation of PKA ([12]). Recent studies have strengthened the role of G0S2 as the so-called master regulator of basal and stimulated lipolysis ([27]). mRNA levels of G0S2 respond strongly to hormonal stimuli, yet the dose-dependent inhibition of ATGL by G0S2 itself is reported to be independent of phosphorylation events ([18], [20], [21], [28], [29]). Thus, regulation of the expression levels of G0S2, and consequently the protein concentration, resembles a potent mean to regulate lipid mobili ... || Next, we investigated the specificity of the peptide hGW2052. ATGL and HSL together account for more than 95% of intracellular TG hydrolase activity in white adipose tissue (WAT) ([48]). For both enzymes, small molecule inhibitors are available. […] WAT lysates of WT and Atgl-KO mice were tested for TG hydrolase activity in the presence of Atglistatin, Hi 76–0079, and hGW2052. Addition of the ATGL inhibitors hGW2052 or Atglistatin redu ... || (+ 3 further places)

HSL = conditions: ref [10], [48], [49]; cited from earlier work
Experimental: Next, we investigated the specificity of the peptide hGW2052. ATGL and HSL together account for more than 95% of intracellular TG hydrolase activity in white adipose tissue (WAT) ([48]). For both enzymes, small molecule inhibitors are available. […] WAT lysates of WT and Atgl-KO mice were tested for TG hydrolase activity in the presence of Atglistatin, Hi 76–0079, and hGW2052. Addition of the ATGL inhibitors hGW2052 or Atglistatin redu ... || To evaluate the specificity of the inhibitory peptide for ATGL, we analyzed the effect of hGW2052 on the activities of phospholipases, intracellular lipases, and extracellular lipases. ATGL belongs to the patatin domain containing family of proteins (PNPLA). […] Although PNPLA family members show high sequence conservation within their common patatin domain, no effects on lysophospholipase activities of PNPLA6 or PNPLA7 could b ...

mATGL [4] = experiment: TG hydrolase activity, E. coli expressed mATGL, CGI-58 activated, hG0S2 truncations (Fig. 1C-E); type: biochemical, mouse; conditions: mATGL E. coli extract (50 μg), 2.5 μg purified mCGI-58, 30 μg lysate of E. coli expressing hG0S2 variant, [3H]triolein, triplicates
Experimental: (§2) Protein concentrations were determined as described below.
(§3) FIGURE 1. Minimal sequence requirements of human G0S2 for ATGL inhibition. A, graphical representation of full-length and shortened versions of hG0S2, those capable of inhibiting ATGL activity are illustrated in black. The largely hydrophobic sequence stretch from Val-28 to Met-42 is depicted in light gray. B–E, activity assays were performed in the presence of CGI-58 as indicated by an asterisk (ATGL*). G0S2 and variants thereof were expressed in E. coli and added as cell lysates. Overexpressed mATGL from E. coli lysates was used for all assays with the exception of the assay shown in B. B, inhibition of TG hydrolase activity of mATGL containing COS-7 cell extracts by WT and C-terminally truncated hG0S2 variants. C, inhibition of TG hydrolase activity of mATGL by WT and C-terminally truncated hG0S2 variants. D, inhibition of TG hydrolase activity of mATGL by WT hG0S2 and variants with N-terminal deletions. E, effect of different N- and C-terminal truncations in hG0S2 on mATGL activity. The fusion tag smt3 is shown as control.

mATGL [5] = experiment: TG hydrolase activity, COS-7 cell extracts containing mATGL, CGI-58 activated (Fig. 1B); type: biochemical, mouse; conditions: COS-7 cell extract with mATGL, hG0S2 variants as E. coli cell lysates (30 μg), [3H]triolein substrate, triplicates
Experimental: as §2
Cells were harvested 48 h after transfection. […] Protein concentrations were determined as described below.
as §3

[6] = single administration to mice, ref [10]

Molecule: CN(C)C(=O)Nc1cccc(-c2ccc(N(C)C)cc2)c1 [Atglistatin]
- inhibition of WAT TG hydrolase activity, Atgl-KO (result in words) [1]: Neither hGW2052 nor Atglistatin inhibited WAT TG hydrolase activity derived from Atgl-KO mice
- plasma FA and TG concentrations ([2]; WT mice, ref [8], [10]): reduced plasma FA and TG concentrations
- TG accumulation in tissues [2, 6]: TG accumulation in liver but not the heart
- tissue accumulation of the inhibitor [2, 6]: accumulation of the inhibitor in liver and adipose tissues
- reduction of TG hydrolase activity of WAT lysates ([3]; 40 μM Atglistatin, Fig. 4A): 49%
- IC50 for ATGL (in words) (ATGL; Atglistatin elsewhere ref [10]): low micromolar range
- dependence of ATGL inhibition on CGI-58 (ATGL; ref [10], [13]): independent of the presence of CGI-58
- mode of ATGL inhibition (ATGL; ref [10], [13]): inhibits ATGL in a competitive manner
- specificity of inhibition (in words), ATGL (ATGL; ref [10], [48], [49]): act as specific inhibitors for ATGL and HSL, respectively

Molecule: CN(C(=O)n1cncn1)c1ccccc1 [Hi 76-0079, N-methyl-phenyl carbamoyl triazole]
- reduction of TG hydrolase activity of WAT lysates ([3]; 25 μM Hi 76-0079, Fig. 4A): 67%
- specificity of inhibition (in words), HSL (HSL): act as specific inhibitors for ATGL and HSL, respectively

Molecule: CCCCCCCC/C=C\CCCCCCCC(=O)SCCNC(=O)CCNC(=O)[C@H](O)C(C)(C)COP(=O)(O)OP(=O)(O)OC[C@H]1O[C@@H](n2cnc3c(N)ncnc32)[C@H](O)[C@@H]1OP(=O)(O)O [oleoyl-CoA]
- IC50 (ATGL; ref [13]): 33 µM

Molecule: hG0S2 Gly-30–Ala-52: N- and C-terminally truncated hG0S2, Gly-30–Ala-52 (GSVLALFGVVLGLMETVCSPFTA; UniProt P27469 30-52, looked up, fragment)
- inhibition of TG hydrolase activity (result in words) (mATGL [4]): had lost all inhibitory activity

Molecule: hG0S2 Leu-10–Ala-52: N- and C-terminally truncated hG0S2, Leu-10–Ala-52 (LAKEMMAQKRKGKMVKLYVLGSVLALFGVVLGLMETVCSPFTA; UniProt P27469 10-52, looked up, fragment)
- inhibition of TG hydrolase activity (result in words) (mATGL [4]): fully retained their activity to inhibit ATGL

Molecule: hG0S2 Lys-20–Met-43: N- and C-terminally truncated hG0S2, Lys-20–Met-43 (KGKMVKLYVLGSVLALFGVVLGLM; UniProt P27469 20-43, looked up, fragment)
- inhibition of TG hydrolase activity (result in words) (mATGL [4]): neither hG0S2 Tyr-27–Ala-52 nor hG0S2 Lys-20–Met-43 exhibited full inhibitory capacity
- inhibition of TG hydrolase activity (result in words) (mATGL [4]; listed as Lys-20–Met-43): did not result in G0S2 variants that were able to inhibit ATGL efficiently

Molecule: hG0S2 truncated at residue Leu-40: hG0S2 truncated at residue Leu-40 (C-terminal truncation) (METVQELIPLAKEMMAQKRKGKMVKLYVLGSVLALFGVVL; UniProt P27469 1-40, looked up, fragment)
- inhibition of TG hydrolase activity (result in words) (mATGL [5]): Inhibition was significantly reduced

Molecule: hG0S2_1–43: C-terminally truncated hG0S2 variant Met-1–Met-43 (METVQELIPLAKEMMAQKRKGKMVKLYVLGSVLALFGVVLGLM; UniProt P27469 1-43, looked up, fragment)
- inhibition of TG hydrolase activity (result in words) (mATGL [4]): still exerts the full inhibitory effect on ATGL
- inhibition of TG hydrolase activity (result in words) (mATGL [4]; listed as Met-1–Met-43): fully able to inhibit ATGL
